Data reported in ChEMBL document CHEMBL5150018, “Subtilisin-like Serine Protease 1 (SUB1) as an Emerging Antimalarial Drug Target: Current Achievements in Inhibitor Discovery” (J Med Chem, 2022).
*1 amine or outer side, *2 acyl side, *3 side chain or, on linkers, in order; H or OH if unused. Where a SMILES comes first, the peptide text is derived from it. [ ]: non-standard residue; d: D form. The star is where a group is joined. Abu(ψCOCO) = CC[C@H](N[*:1])C(=O)C(=O)[*:2]; X1 = NC(=O)CC[C@H](N[*:1])C(=O)C(=O)[*:2]; X2 = C[C@H](N[*:1])C(=O)C(F)(F)C(=O)[*:2]; Pentanoyl(4-Me) = CC(C)CCC(=O)*; Bn = c1ccc(C*)cc1; CF3 = FC(F)(F)*; NHcPr = C1CC1N*

Tests used:
[1] = target: T1, Subtilisin-like protease 1 (Plasmodium falciparum, UniProt O61142); experiment: Binding affinity to Plasmodium falciparum SUB1 using KLVSADNIDIS peptide as substrate by FRET assay
T1 sequence (O61142 whole entry): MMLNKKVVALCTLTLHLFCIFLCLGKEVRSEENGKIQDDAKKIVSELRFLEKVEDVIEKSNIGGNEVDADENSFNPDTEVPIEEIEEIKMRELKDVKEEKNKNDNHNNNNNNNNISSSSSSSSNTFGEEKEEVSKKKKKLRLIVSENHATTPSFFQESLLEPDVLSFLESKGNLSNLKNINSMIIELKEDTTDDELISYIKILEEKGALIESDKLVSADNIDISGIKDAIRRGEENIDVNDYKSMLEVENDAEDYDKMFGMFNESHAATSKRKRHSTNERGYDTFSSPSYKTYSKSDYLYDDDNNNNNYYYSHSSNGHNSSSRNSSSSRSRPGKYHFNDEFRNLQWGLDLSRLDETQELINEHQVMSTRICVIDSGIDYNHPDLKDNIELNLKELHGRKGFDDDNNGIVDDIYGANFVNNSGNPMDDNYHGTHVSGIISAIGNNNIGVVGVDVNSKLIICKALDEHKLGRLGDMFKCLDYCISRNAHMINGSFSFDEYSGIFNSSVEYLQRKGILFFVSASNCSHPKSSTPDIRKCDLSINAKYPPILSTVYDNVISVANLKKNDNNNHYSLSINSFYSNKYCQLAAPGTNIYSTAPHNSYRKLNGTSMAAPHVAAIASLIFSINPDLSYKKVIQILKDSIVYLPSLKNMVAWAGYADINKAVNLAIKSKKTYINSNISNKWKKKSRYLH

Plasmodium falciparum [2] = experiment: Antimalarial activity against Plasmodium falciparum 3D7 assessed as inhibition of parasitic growth measured after 48 hrs; assay type: functional, organism-based; conditions: 3D7, 48 h
Plasmodium falciparum [3] = experiment: Antimalarial activity against Plasmodium falciparum Dd2 assessed as inhibition of parasitic growth measured after 48 hrs; assay type: functional, organism-based; conditions: Dd2, 48 h
[4] = target: T1, Subtilisin-like protease 1; experiment: Inhibition of recombinant Plasmodium falciparum SUB1 using SERA4st1F-6R1 as substrate by fluorescence spectrophotometer
[5] = target: T1, Subtilisin-like protease 1; experiment: Inhibition of Plasmodium falciparum SUB1
Plasmodium falciparum [6] = experiment: Antimalarial activity against Plasmodium falciparum 3D7 assessed as inhibition of parasite growth incubated for 96 hrs by SYBR Green dye based assay; assay type: functional, organism-based; conditions: 3D7, 96 h
[7] = Inhibition of recombinant Plasmodium vivax SUB1 using SERA4st1F-6R1 as substrate by fluorescence spectrophotometer
[8] = Inhibition of recombinant Plasmodium knowlesi SUB1 using SERA4st1F-6R1 as substrate by fluorescence spectrophotometer
[9] = target: T1, Subtilisin-like protease 1; experiment: Inhibition of Plasmodium falciparum SUB1 in intact schizonts
[10] = Inhibition of Plasmodium vivax SUB1
[11] = target: T1, Subtilisin-like protease 1; experiment: Inhibition of recombinant C-terminal 6-His tagged Plasmodium falciparum SUB1 expressed in baculovirus expression system
[12] = Inhibition of recombinant C-terminal 6-His tagged Plasmodium vivax SUB1 expressed in baculovirus expression system
Plasmodium falciparum [13] = experiment: Antimalarial activity against synchronized Plasmodium falciparum 3D7 infected in human RBC assessed as inhibition of cell invasion incubated for 4 to 8 hrs by Giemsa staining based microscopic analysis; assay type: functional; conditions: 3D7, Erythrocyte, time 4-8 hrs, read-out: ED50 (the source's name)
Plasmodium falciparum [14] = experiment: Antimalarial activity against synchronized Plasmodium falciparum 3D7 infected in human RBC assessed as inhibition of parasite growth at schizont stage incubated for 4 to 8 hrs by Giemsa staining based microscopic analysis; assay type: functional; conditions: 3D7, Erythrocyte, time 4-8 hrs, read-out: ED50 (the source's name)
[15] = Inhibition of Bacillus licheniformis Subtilisin A

`COc1cc(Cl)c(C)cc1NC(=O)Cn1c(=O)n(CC(=O)NC2CCCC2)c(=O)c2ccccc21` showed a Ki [1] of 30 µM, an IC50 (Plasmodium falciparum [2]) of over 50 µM and an IC50 (Plasmodium falciparum [3]) of over 50 µM.
Compound `Brc1ccc(Nc2nc3ccccc3nc2Nc2ccc(Br)cc2)cc1` has an IC50 [4] of 10 µM.
`CCc1cccc(NC(=O)c2ccc3c(=O)n4nc(Nc5cc(C)ccc5C)sc4nc3c2)c1` showed a Ki [1] of 30.1 µM, an IC50 (Plasmodium falciparum [2]) of 17.1 µM and an IC50 (Plasmodium falciparum [3]) of 22.3 µM.
With `CC[C@H](C)[C@H](NC(C)=O)C(=O)N[C@H](C(=O)N[C@@H](C)C(=O)N[C@@H](C)C(=O)C(F)(F)C(=O)O)[C@@H](C)O` the IC50 [4] was over 50 µM.
`CC(=O)N[C@H](C(=O)N[C@H](C(=O)NCC(=O)N[C@@H](C)B(O)O)C(C)C)C1CCCC1` showed an IC50 [5] of 5.7 µM and an EC50 (Plasmodium falciparum [6]) of 0.26 µM.
Compound `CS(=O)(=O)Nc1cc2nc(Nc3ccc(Br)cc3)c(Nc3ccc(Br)cc3)nc2cc1Cl` has an IC50 [4] of 11 µM.
`CC[C@H](C)[C@H](NC(=O)[C@H](CCCCN)NC(C)=O)C(=O)N[C@H](C(=O)N[C@@H](C)C(=O)N[C@@H](C)C(=O)C(F)(F)C(=O)NCC(=O)O)[C@@H](C)O` (Ac-KITA[X2]G-OH) showed an IC50 [7] of 2.5 µM and an IC50 [8] of 1.12 µM.
For `O=C(CCCCCNC(=O)CCCC[C@H]1SC[C@H]2NC(=O)N[C@H]21)NCCCCCC(=O)Nc1ccc2c(Cl)c(OCCc3ccccc3)oc(=O)c2c1`, the IC50 [9] was 18 µM.
In the case of `CC[C@H](C)[C@H](NC(C)=O)C(=O)N[C@H](C(=O)NCC(=O)N[C@@H](C)C(=O)C(F)(F)C(=O)NCC(=O)O)C(C)C` (Ac-IVG[X2]G-OH), the IC50 [4] is reported as 0.25 µM.
`CC[C@H](C)[C@H](NC(C)=O)C(=O)N[C@H](C(=O)NCC(=O)N[C@@H](C)B(O)O)[C@@H](C)O` showed an IC50 [5] of 0.069 µM and an EC50 (Plasmodium falciparum [6]) of 1.8 µM.
Compound `CC[C@H](C)[C@H](NC(C)=O)C(=O)N[C@H](C(=O)N[C@@H](C)C(=O)N[C@@H](C)C(=O)C(F)(F)C(=O)NCC(=O)O)[C@@H](C)O` (Ac-ITA[X2]G-OH) has an IC50 [7] of 2.2 µM and an IC50 [8] of 0.68 µM.
In the case of `CC[C@H](C)[C@H](NC(=O)[C@H](CCCCN)NC(=O)CCC(C)C)C(=O)N[C@H](C(=O)N[C@@H](C)C(=O)N[C@@H](CCC(N)=O)C(=O)C(=O)N[C@@H](CC(=O)O)C(=O)N[C@@H](CC(=O)O)C(=O)N[C@@H](CCC(N)=O)C(=O)N[C@@H](CCC(N)=O)C(N)=O)[C@@H](C)O` ({Pentanoyl(4-Me)}-KITA[X1]DDQQ-NH2), the IC50 [5] is reported as 17.8 µM and the IC50 [10] is reported as 10.5 µM.
`O=C(Nc1ccc(-c2nc3cc(NC(=O)c4ccccc4)ccc3[nH]2)cc1)c1ccccc1` gave a Ki [1] of 7.6 µM, an IC50 (Plasmodium falciparum [2]) of 1.1 µM and an IC50 (Plasmodium falciparum [3]) of 3.3 µM.
For `COc1ccc(Nc2cc(C)c3cc(NC(=O)c4cc5ccccc5[nH]4)ccc3n2)cc1`, the IC50 (Plasmodium falciparum [2]) was 0.37 µM and the IC50 (Plasmodium falciparum [3]) was 0.45 µM.
With `Clc1cc(Nc2nc3ccccc3nc2Nc2ccc(Br)c(Cl)c2)ccc1Br` the IC50 [4] was 14 µM.
In the case of `Nc1cc2nc(Nc3ccc(Br)cc3)c(Nc3ccc(Br)cc3)nc2cc1Cl`, the IC50 [4] is reported as 17 µM.
`CC(C)[C@H](NC(=O)Cc1ccccc1)C(=O)NCC(=O)N[C@@H](C)C(=O)C(F)(F)C(=O)NCC(=O)O` showed an IC50 [4] of 1 µM.
Work on `CC(=O)N[C@H](C(=O)N[C@H](C(=O)NCC(=O)N[C@@H](C)B(O)O)[C@@H](C)O)C1CCCC1` yielded an IC50 [5] of 9.3 µM and an EC50 (Plasmodium falciparum [6]) of 2.3 µM.
Compound `CC[C@H](NC(=O)[C@H](C)NC(=O)[C@@H](NC(=O)[C@@H](NC(=O)[C@H](CCCCN)NC(C)=O)[C@@H](C)CC)[C@@H](C)O)C(=O)C(=O)NC1CC1` (Ac-KITA[Abu(ψCOCO)]-NHcPr) has an IC50 [11] of 6 µM and an IC50 [12] of 12 µM.
Work on `CC(=O)N[C@H](C(=O)N[C@H](C(=O)NCC(=O)NC(C)C(=O)C(=O)NCCC(=O)O)[C@@H](C)O)C1CCCC1` (stereo not given in full) yielded an IC50 [5] of 0.37 µM.
Work on `Oc1ccc(C2Oc3c(c(O)cc4c3C3c5c(O)cc(O)c(O)c5OC(c5ccc(O)c(O)c5)(O4)C3O)CC2O)cc1O` (stereo not given) yielded an EC50 (Plasmodium falciparum [13]) of 25 µM and an EC50 (Plasmodium falciparum [14]) of 108 µM.
`CC1(C)CC[C@]2(C(=O)O)CC[C@]3(C)C(=CC[C@@H]4[C@@]5(C)C[C@@H](O)[C@H](O)C(C)(C)[C@@H]5CC[C@]43C)[C@@H]2C1` [MASLINIC ACID] gave an IC50 [15] of 59.3 µM.
In the case of `CSc1ccc(CCNC(=O)Cn2ncc3c([nH]c4ccccc43)c2=O)cc1`, the Ki [1] is reported as 14.7 µM, the IC50 (Plasmodium falciparum [2]) is reported as over 50 µM and the IC50 (Plasmodium falciparum [3]) is reported as over 50 µM.
`CC(=O)N[C@H](C(=O)N[C@@H](C)C(=O)NCC(=O)N[C@@H](C)B(O)O)C1CCCC1` gave an IC50 [5] of 7.8 µM and an EC50 (Plasmodium falciparum [6]) of 0.34 µM.
`CC(=O)N[C@H](C(=O)N[C@H](C(=O)NCC(=O)N[C@H]1CCOB1O)[C@@H](C)O)C1CCCC1` showed an IC50 [5] of 4.6 µM and an EC50 (Plasmodium falciparum [6]) of 15 µM.
Compound `CC[C@H](C)[C@H](NC(C)=O)C(=O)N[C@H](C(=O)N[C@@H](C)C(=O)N[C@@H](C)C(=O)C(F)(F)F)[C@@H](C)OCc1ccccc1` (Ac-IT(Bn)AA-CF3) has an IC50 [4] of over 50 µM.
